Source: ChEMBL document CHEMBL6087389, “Hydrazone-Functionalized trans-A2B-Corroles: Effective Synergy in Photodynamic Therapy of Lung Cancer” (J Med Chem, 2024)
Each block holds one compound with its values, some of them ahead of it. Active and inactive are the calls of the source. The calls are words filed in the database; no cut-off is given here.

How the values were obtained:
[1] = Phototoxicity against human A549 cells assessed as reduction in cell viability preincubated for 24 hrs followed by 7.5 to 10 mW/cm^-2 red light irradiation and measured after 24 hrs by MTT assay; assay type: functional, cell-based; settings: A549, light or radiation study
[2] = Fluorescence property of the compound in THF assessed as fluorescence quantum yield by photoluminescence quantum yield spectrometer; assay type: physicochemical
[3] = Induction of singlet oxygen generation in THF assessed as singlet oxygen quantum yield by comparative photoluminescence method; assay type: functional
A549 [4] = assay: Dark toxicity against human A549 cells assessed as reduction in metabolic activity at <1 uM incubated for 4 hrs by MTT assay; assay type: cell-based; settings: a549, 4 h
[5] = Fluorescence property of the compound in DMSO assessed as fluorescence quantum yield by photoluminescence quantum yield spectrometer; assay type: physicochemical
[6] = Phototoxicity against human NCI-H1299 cells assessed as reduction in cell viability preincubated for 24 hrs followed by 7.5 to 10 mW/cm^-2 red light irradiation and measured after 24 hrs by MTT assay; assay type: functional, cell-based; settings: NCI-H1299, light or radiation study
NCI-H1299 [7] = assay: Dark toxicity against human NCI-H1299 cells assessed as reduction in metabolic activity at <1 uM incubated for 4 hrs by MTT assay; assay type: cell-based; settings: nci-h1299, 4 h
NCI-H1299 [8] = assay: Dark toxicity against human NCI-H1299 cells assessed as reduction in metabolic activity at 10 uM incubated for 4 hrs by MTT assay; assay type: cell-based; set-up: scale not given: the % may be the effect or the level left; settings: nci-h1299, 4 h
A549 [9] = assay: Induction of apoptosis in human A549 cells assessed as increase in apoptotic cells at 500 nM preincubated for 24 hrs followed by irradiated with 7.5 to 10 mW/cm^-2 red light for 24 hrs by Annexin V and propidium iodide staining based flow cytometry relative to control; assay type: functional; settings: time 48 hrs
A549 [10] = assay: Dark toxicity against human A549 cells assessed as reduction in metabolic activity at 10 uM incubated for 4 hrs by MTT assay; assay type: cell-based; set-up: scale not given: the % may be the effect or the level left; settings: a549, 4 h
Mitochondrial membrane [11] = assay: Induction of mitochondrial membrane depolarization in human NCI-H1299 cells assessed as increase in monomer to aggregate ratio at 250 nM preincubated for 15 mins irradiated with 7.5 to 10 mW/cm^-2 red light by JC-1 fluorescent probe based flow cytometric analysis (reference value: 1.0+/-0.00); assay type: cell membranes
NCI-H1299 [12] = assay: Induction of apoptosis in human NCI-H1299 cells assessed as reduction in viability at 100 to 500 nM preincubated for 24 hrs followed by irradiated with 7.5 to 10 mW/cm^-2 red light for 24 hrs by Annexin V and propidium iodide staining based flow cytometry relative to control; assay type: functional; settings: dose 100-500 nM, time 48 hrs
NCI-H1299 [13] = assay: Induction of superoxide anion production in human NCI-H1299 cells irradiated with 7.5 to 10 mW/cm^-2 red light for 24 hrs at 100 to 250 nM incubated for 2 hrs by DHE and DCFH2-DA staining based fluorimetric analysis; assay type: functional, cell-based; settings: dose 100-250 nM
Mitochondrial membrane [14] = assay: Induction of mitochondrial membrane depolarization in human A549 cells assessed as increase in monomer to aggregate ratio at 100 nM preincubated for 15 mins irradiated with 7.5 to 10 mW/cm^-2 red light by JC-1 fluorescent probe based flow cytometric analysis (reference value: 24.7+/-6.9); assay type: cell membranes
Mitochondrial membrane [15] = assay: Induction of mitochondrial membrane depolarization in human A549 cells assessed as increase in monomer to aggregate ratio at 250 nM preincubated for 15 mins irradiated with 7.5 to 10 mW/cm^-2 red light by JC-1 fluorescent probe based flow cytometric analysis (reference value: 24.7+/-6.9); assay type: cell membranes
NCI-H1299 [16] = assay: Induction of apoptosis in human NCI-H1299 cells assessed as late apoptotic/necrotic cells at 500 nM preincubated for 24 hrs followed by irradiated with 7.5 to 10 mW/cm^-2 red light for 24 hrs by Annexin V and propidium iodide staining based flow cytometry relative to control; assay type: functional; settings: time 48 hrs
A549 [17] = assay: Induction of apoptosis in human A549 cells assessed as late apoptotic cells at 100 nM preincubated for 24 hrs followed by irradiated with 7.5 to 10 mW/cm^-2 red light for 24 hrs by Annexin V and propidium iodide staining based flow cytometry relative to control; assay type: functional; settings: time 48 hrs
A549 [18] = assay: Induction of apoptosis in human A549 cells assessed as increase in apoptotic cells at 100 nM preincubated for 24 hrs followed by irradiated with 7.5 to 10 mW/cm^-2 red light for 24 hrs by Annexin V and propidium iodide staining based flow cytometry relative to control; assay type: functional; settings: time 48 hrs
NCI-H1299 [19] = assay: Induction of apoptosis in human NCI-H1299 cells assessed as late apoptotic/necrotic cells at 100 nM preincubated for 24 hrs followed by irradiated with 7.5 to 10 mW/cm^-2 red light for 24 hrs by Annexin V and propidium iodide staining based flow cytometry relative to control; assay type: functional; settings: time 48 hrs
NCI-H1299 [20] = assay: Reduction in hydrogen peroxide production in human NCI-H1299 cells irradiated with 7.5 to 10 mW/cm^-2 red light for 24 hrs at 0 to 250 nM incubated for 2 hrs by DHE and DCFH2-DA staining based fluorimetric analysis; assay type: functional, cell-based; settings: dose 0-250 nM
A549 [21] = assay: Induction of apoptosis in human A549 cells assessed as necrotic cells at 100 nM preincubated for 24 hrs followed by irradiated with 7.5 to 10 mW/cm^-2 red light for 24 hrs by Annexin V and propidium iodide staining based flow cytometry relative to control; assay type: functional; settings: time 48 hrs
NCI-H1299 [22] = assay: Induction of apoptosis in human NCI-H1299 cells assessed as appearance of necrosis at 100 to 250 nM preincubated for 24 hrs followed by irradiated with 7.5 to 10 mW/cm^-2 red light for 24 hr by May-Grunwald/Giemsa staining by light microscopic analysis; assay type: functional, cell-based; settings: dose 100-250 nM, time 48.0 hrs
A549 [23] = assay: Photocytotoxicity in human A549 cells assessed as metabolic activity in presence of sodium azide measured preincubated for 24 hrs followed by irradiated with 7.5 to 10 mW/cm^-2 red light for 24 hrs by MTT assay; assay type: functional, cell-based; settings: A549, light or radiation study
A549 [24] = assay: Induction of apoptosis in human A549 cells assessed as necrotic cells at 500 nM preincubated for 24 hrs followed by irradiated with 7.5 to 10 mW/cm^-2 red light for 24 hrs by Annexin V and propidium iodide staining based flow cytometry relative to control; assay type: functional; settings: time 48 hrs
A549 [25] = assay: Induction of apoptosis in human A549 cells assessed as reduction in viable cells at 100 nM preincubated for 24 hrs followed by irradiated with 7.5 to 10 mW/cm^-2 red light for 24 hrs by Annexin V and propidium iodide staining based flow cytometry relative to control; assay type: functional; settings: time 48 hrs
NCI-H1299 [26] = assay: Induction of apoptosis in human NCI-H1299 cells assessed as early apoptotic cells at 100 nM preincubated for 24 hrs followed by irradiated with 7.5 to 10 mW/cm^-2 red light for 24 hrs by Annexin V and propidium iodide staining based flow cytometry relative to control; assay type: functional; settings: time 48 hrs
A549 [27] = assay: Reduction in hydrogen peroxide production in human A549 cells irradiated with 7.5 to 10 mW/cm^-2 red light for 24 hrs at 100 to 250 nM measured after 2 hrs by DHE and DCFH2-DA staining based fluorimetric analysis; assay type: functional, cell-based; settings: dose 100-250 nM
A549 [28] = assay: Induction of superoxide anion production in human A549 cells irradiated with 7.5 to 10 mW/cm^-2 red light for 24 hrs at 100 to 250 nM incubated for 2 hrs by DHE and DCFH2-DA staining based fluorimetric analysis; assay type: functional, cell-based; settings: dose 100-250 nM
A549 [29] = assay: Induction of apoptosis in human A549 cells assessed as reduction in viable cells at 500 nM preincubated for 24 hrs followed by irradiated with 7.5 to 10 mW/cm^-2 red light for 24 hrs by Annexin V and propidium iodide staining based flow cytometry relative to control; assay type: functional; settings: time 48 hrs
NCI-H1299 [30] = assay: Induction of apoptosis in human NCI-H1299 cells assessed as early apoptotic cells at 500 nM preincubated for 24 hrs followed by irradiated with 7.5 to 10 mW/cm^-2 red light for 24 hrs by Annexin V and propidium iodide staining based flow cytometry relative to control; assay type: functional; settings: time 48 hrs
Mitochondrial membrane [31] = assay: Induction of mitochondrial membrane depolarization in human NCI-H1299 cells assessed as increase in monomer to aggregate ratio at 100 nM preincubated for 15 mins irradiated with 7.5 to 10 mW/cm^-2 red light by JC-1 fluorescent probe based flow cytometric analysis (reference value: 1.0+/-0.00); assay type: cell membranes
A549 [32] = assay: Induction of apoptosis in human A549 cells assessed as late apoptotic cells at 500 nM preincubated for 24 hrs followed by irradiated with 7.5 to 10 mW/cm^-2 red light for 24 hrs by Annexin V and propidium iodide staining based flow cytometry relative to control; assay type: functional; settings: time 48 hrs
A549 [33] = assay: Photocytotoxicity in human A549 cells assessed as cell viability at 10 uM measured after 24 hrs by MTT assay relative to control; assay type: functional; settings: read-out: Activity
[34] = Fluorescence property of the compound in toluene assessed as fluorescence quantum yield by photoluminescence quantum yield spectrometer; assay type: physicochemical

Compound: CC(C)(C)OC(=O)N/N=C(/c1ccccc1)c1c2nc(c(-c3ccc(O)cc3)c3ccc([nH]3)c3ccc([nH]3)c(-c3ccc(O)cc3)c3ccc1[nH]3)C=C2
IC50 [1]: 89.3 nM
Activity [2]: 0.118
Activity [3]: 0.21
Activity (A549 [4]): Non-toxic
Activity [5]: 0.234
IC50 [6]: 56.1 nM
Activity (NCI-H1299 [7]): Non-toxic

Compound: C/C(=N/NC(=O)OC(C)(C)C)c1c2nc(c(-c3ccc(O)cc3)c3ccc([nH]3)c3ccc([nH]3)c(-c3ccc(O)cc3)c3ccc1[nH]3)C=C2
IC50 [1]: 413 nM
Activity [2]: 0.114
Activity [3]: 0.18
Activity (A549 [4]): Non-toxic
Activity [5]: 0.249
IC50 [6]: 145 nM
Activity (NCI-H1299 [7]): Non-toxic

Compound: C/C(=N/NC(=O)OC(C)(C)C)c1c2nc(c(-c3ccccc3)c3ccc([nH]3)c3ccc([nH]3)c(-c3ccccc3)c3ccc1[nH]3)C=C2
Activity (A549 [9]): 17.5%
Activity (A549 [10]): Non-toxic
IC50 [1]: 94.9 nM
Activity (Mitochondrial membrane [11]): 4
Activity (NCI-H1299 [12]): >=75%
Activity (NCI-H1299 [13]): Active
Activity (Mitochondrial membrane [14]): 39.7
Activity [2]: 0.14
Activity (Mitochondrial membrane [15]): 47.7
Activity (NCI-H1299 [16]): 28.8%
Activity (A549 [17]): 35.5%
Activity (A549 [18]): 21%
Activity (NCI-H1299 [19]): 57.9%
Activity [3]: 0.39
Activity (A549 [4]): Non-toxic
Activity (NCI-H1299 [20]): Active
Activity (A549 [21]): 22.8%
Activity (NCI-H1299 [22]): Active
IC50 (A549 [23]): 373 nM
Activity (A549 [24]): 26.5%
Activity [5]: 0.267
Activity (A549 [25]): 20.8%
Activity (NCI-H1299 [26]): 20.1%
IC50 [6]: 25 nM
Activity (A549 [27]): Active
Activity (A549 [28]): Active
Activity (A549 [29]): 18%
Activity (NCI-H1299 [8]): Non-toxic
Activity (NCI-H1299 [7]): Non-toxic
Activity (NCI-H1299 [30]): 69%
Activity (Mitochondrial membrane [31]): 1.7
Activity (A549 [32]): 38%

Compound: C/C(=N/NC(=O)OC(C)(C)C)c1c2nc(c(-c3ccc([N+](=O)[O-])cc3)c3ccc([nH]3)c3ccc([nH]3)c(-c3ccc([N+](=O)[O-])cc3)c3ccc1[nH]3)C=C2
Activity (A549 [10]): 49.14%
IC50 [1]: 748 nM
Activity [3]: 0.22
Activity (A549 [4]): Non-toxic
Activity [34]: 0.195
IC50 [6]: 310 nM
Activity (NCI-H1299 [8]): 53.41%
Activity (NCI-H1299 [7]): Non-toxic

Further lines, with some results ahead:

Activity [2]: 0.159
Activity [5]: 0.298
Compound: CC(C)(C)OC(=O)N/N=C(\c1ccccc1)c1c2nc(c(-c3ccccc3)c3ccc([nH]3)c3ccc([nH]3)c(-c3ccccc3)c3ccc1[nH]3)C=C2
IC50 [1]: 948 nM
Activity [3]: 0.46
Activity (A549 [4]): Non-toxic
IC50 [6]: 538 nM
Activity (NCI-H1299 [8]): Non-toxic
Activity (NCI-H1299 [7]): Non-toxic

Activity [2]: 0.12
Activity [5]: 0.22
Compound: C1=Cc2nc1c(-c1ccccc1)c1ccc([nH]1)c(-c1ccccc1)c1ccc([nH]1)c1ccc([nH]1)c2-c1ccccc1
Activity [3]: 0.22
viability at 10 µM (A549 [33]): 93%
